In patent publication US8580288B2, “Agricultural or horticultural fungicide composition and its use for controlling plant pathogens” (Ishihara Sangyo Kaisha, Ltd, priority 2009, dated 2013):
Like-named read-outs stand apart in the source and are kept apart here.

Key:
Pythium aphanidermatum = assay: Inhibition test of mycelial growth against Pythium aphanidermatum; assay type: cell-based; conditions: read-out: Inhibition Rate of Mycelial Growth against Pythium aphanidermatum
Description: [Worded in the source for another organism; this organism is reported under the same test.] (§1) Pythium aristosporum was precultured. And the obtained hyphae (4 mm in diameter) was transplanted on potato sucrose agar medium (PSA) including an agent at a predetermined concentration, and then cultured for two days at room temperature of 20° C., followed by measuring a diameter of the mycelial colony to obtain an inhibition rate of mycelial growth. The inhibition rate of mycelial growth was obtained by measuring a diameter of mycelial colony in the same manner as Test Example 1. In addition, a theoretical value of the inhibition rate was calculated using Colby's formula and listed in parentheses of Table 2.

Pythium aristosporum = assay: Inhibition test of mycelial growth against Pythium aristosporum; assay type: cell-based; conditions: 48 h, PSA, 2 days, 20° C., read-out: Inhibition Rate of Mycelial Growth against Pythium aristosporum
Description: as §1, with “growth.” for “growth. The inhibition rate of mycelial growth was obtained by measuring a diameter of mycelial colony in the same manner as Test Example 1.”, “1.” for “2.”

[1] = Cyazofamid 0.1 ppm alone (Folpet 0 ppm)
[2] = Cyazofamid 1 ppm alone (Folpet 0 ppm)
[3] = Cyazofamid 10 ppm alone (Folpet 0 ppm)
[4] = Cyazofamid 100 ppm alone (Folpet 0 ppm)
[5] = Folpet 0.1 ppm alone (Cyazofamid 0 ppm)
[6] = Folpet 1 ppm alone (Cyazofamid 0 ppm)
[7] = Folpet 10 ppm alone (Cyazofamid 0 ppm)
[8] = Folpet 100 ppm alone (Cyazofamid 0 ppm)

SMILES: Cc1ccc(-c2c(Cl)nc(C#N)n2S(=O)(=O)N(C)C)cc1 [Cyazofamid, 4-chloro-2-cyano-1-dimethylsulfamoyl-5-(4-methylphenyl)imidazole]
- inhibition at 0.1 ppm (Pythium aphanidermatum; [1]): 54%
- inhibition at 1 ppm (Pythium aphanidermatum; [2]): 52%
- inhibition at 10 ppm (Pythium aphanidermatum; [3]): 60%
- inhibition at 100 ppm (Pythium aphanidermatum; [4]): 80%
- inhibition at 0.1 ppm (Pythium aristosporum; [1]): 17%
- inhibition at 1 ppm (Pythium aristosporum; [2]): 38%
- inhibition at 10 ppm (Pythium aristosporum; [3]): 38%
- inhibition at 100 ppm (Pythium aristosporum; [4]): 41%

SMILES: O=C1c2ccccc2C(=O)N1SC(Cl)(Cl)Cl [Folpet, N-(trichloromethanesulphenyl)phthalimide]
- inhibition at 0.1 ppm (Pythium aphanidermatum; [5]): 2%
- inhibition at 1 ppm (Pythium aphanidermatum; [6]): 0%
- inhibition at 10 ppm (Pythium aphanidermatum; [7]): 62%
- inhibition at 100 ppm (Pythium aphanidermatum; [8]): 80%
- inhibition at 0.1 ppm (Pythium aristosporum; [5]): 3%
- inhibition at 1 ppm (Pythium aristosporum; [6]): 3%
- inhibition at 10 ppm (Pythium aristosporum; [7]): 45%
- inhibition at 100 ppm (Pythium aristosporum; [8]): 90%
